The record followed here is ChEMBL document CHEMBL6096628, “Discovery of a Highly Potent and Selective BRD9 PROTAC Degrader Based on E3 Binder Investigation for the Treatment of Hematological Tumors” (J Med Chem, 2024).

In assay [1] the test system is MV4-11. The assay can be described thus: Antiproliferative activity against CRBN knockout human MV4-11 cells assessed as inhibition of cell growth incubated for 7 days by MTS reagent based assay. The format is functional. Conditions: MV4-11, 168 h. (Tetrazolium assays rely on reduction of a dye to a coloured formazan, in cell work by metabolically active cells.)
The target in assay [2] is T1, Protein cereblon/Bromodomain-containing protein 9 (Homo sapiens, UniProt Q9H8M2+Q96SW2). Description: PROTAC activity at CRBN/BRD9 in human MV4-11 cells assessed as induction of BRD9 degradation at 1 nM by Western blot analysis relative to control. The format is cell-based.
Target sequence in this assay (Q96SW2 whole entry, looked up): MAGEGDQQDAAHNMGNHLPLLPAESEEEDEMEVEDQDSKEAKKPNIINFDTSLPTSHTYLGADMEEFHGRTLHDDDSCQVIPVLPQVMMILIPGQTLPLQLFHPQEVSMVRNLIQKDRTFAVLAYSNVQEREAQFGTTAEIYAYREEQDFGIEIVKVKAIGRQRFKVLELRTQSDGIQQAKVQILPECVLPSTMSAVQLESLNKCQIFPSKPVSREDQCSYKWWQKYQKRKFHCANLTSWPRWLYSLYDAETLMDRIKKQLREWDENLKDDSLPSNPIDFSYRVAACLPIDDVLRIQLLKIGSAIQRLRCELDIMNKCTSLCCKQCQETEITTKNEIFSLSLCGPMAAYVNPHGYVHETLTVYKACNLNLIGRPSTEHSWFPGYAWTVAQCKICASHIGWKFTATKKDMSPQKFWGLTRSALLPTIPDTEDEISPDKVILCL
Target sequence in this assay (Q9H8M2 whole entry, looked up): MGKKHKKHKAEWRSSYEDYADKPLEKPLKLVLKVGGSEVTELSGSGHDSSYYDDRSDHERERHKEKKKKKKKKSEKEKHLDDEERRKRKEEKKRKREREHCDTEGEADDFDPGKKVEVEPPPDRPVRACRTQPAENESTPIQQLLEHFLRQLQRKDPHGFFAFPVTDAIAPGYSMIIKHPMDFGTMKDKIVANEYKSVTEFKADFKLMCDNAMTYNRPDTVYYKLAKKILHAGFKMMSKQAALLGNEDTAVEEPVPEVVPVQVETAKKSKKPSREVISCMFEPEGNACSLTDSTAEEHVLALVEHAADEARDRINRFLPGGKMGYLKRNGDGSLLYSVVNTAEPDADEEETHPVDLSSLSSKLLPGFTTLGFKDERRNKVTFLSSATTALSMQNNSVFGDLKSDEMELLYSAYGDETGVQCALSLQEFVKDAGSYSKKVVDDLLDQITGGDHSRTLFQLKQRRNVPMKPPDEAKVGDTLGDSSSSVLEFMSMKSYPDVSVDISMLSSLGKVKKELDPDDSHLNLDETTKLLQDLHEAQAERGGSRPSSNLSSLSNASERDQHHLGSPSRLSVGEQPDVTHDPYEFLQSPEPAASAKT
In assay [3] the target is T1, Protein cereblon/Bromodomain-containing protein 9. The assay can be described thus: PROTAC activity at CRBN/BRD9 in human MV4-11 cells assessed as induction of BRD9 degradation at 100 nM by Western blot analysis relative to control. The format is cell-based.
Target sequence in this assay (Q96SW2 whole entry, looked up): as the sequence (Q96SW2 whole entry, looked up) above
Target sequence in this assay (Q9H8M2 whole entry, looked up): as the sequence (Q9H8M2 whole entry, looked up) above
Assay [4] has the same target. Description: PROTAC activity at CRBN/BRD9 in human MV4-11 cells assessed as induction of BRD9 degradation at 10 nM by Western blot analysis relative to control. The format is cell-based.
Target sequence in this assay (Q96SW2 whole entry, looked up): as the sequence (Q96SW2 whole entry, looked up) above
Target sequence in this assay (Q9H8M2 whole entry, looked up): as the sequence (Q9H8M2 whole entry, looked up) above
The test system of assay [5] is MV4-11. Description: Antiproliferative activity against human MV4-11 cells assessed as inhibition of cell growth incubated for 7 days by MTS reagent based assay. The format is functional. Conditions: MV4-11, 168 h.
Another assay relates to MOLM-13. The assay can be described thus: Antiproliferative activity against human MOLM-13 cells assessed as inhibition of cell growth incubated for 7 days by MTS reagent based assay. The format is functional. The conditions noted are these: MOLM-13, 168 h.
A further assay deals with SU-DHL-2. The assay can be described thus: Antiproliferative activity against human SU-DHL-2 cells assessed as inhibition of cell growth incubated for 7 days by MTS reagent based assay. The format is functional. The conditions noted are these: SU-DHL-2, 168 h.
The target of assay [6] is T1, Protein cereblon/Bromodomain-containing protein 9. Description: PROTAC activity at CRBN/BRD9 (unknown origin). The format is protein assay.
Target sequence in this assay (Q9H8M2 whole entry): as the sequence (Q9H8M2 whole entry, looked up) above
Target sequence in this assay (Q96SW2 whole entry): as the sequence (Q96SW2 whole entry, looked up) above
The next assay concerns OCI-Ly10. The assay can be described thus: Antiproliferative activity against human OCI-Ly10 cells assessed as inhibition of cell growth incubated for 7 days by MTS reagent based assay. The conditions noted are these: OCI-Ly10, 168 h. The format is functional.
For a further assay, the system named is SU-DHL-6. The assay can be described thus: Antiproliferative activity against human SU-DHL-6 cells assessed as inhibition of cell growth incubated for 7 days by MTS reagent based assay. Conditions: SU-DHL-6, 168 h. The format is functional.
A further assay has as its system U-937. The assay can be described thus: Antiproliferative activity against human U-937 cells assessed as inhibition of cell growth incubated for 7 days by MTS reagent based assay. The format is functional. The conditions noted are these: time 7.0 day.
A further assay deals with Kasumi 1. Description: Antiproliferative activity against human Kasumi 1 cells assessed as inhibition of cell growth incubated for 7 days by MTS reagent based assay. The format is functional. The conditions noted are these: Kasumi 1, 168 h.

Calls of active or inactive are those of the source. The calls are words filed in the database; no cut-off is given here.

Consider `COc1cc(-c2cn(C)c(=O)c3ccccc23)cc(OC)c1CN1CCN(c2ccc(C(=O)NC3CCC(=O)NC3=O)cn2)CC1` (centres undefined), for which the half-maximal inhibitory concentration (IC50) with MV4-11 [1] was > 5000 nM; in the assay on MV4-11 [5] it was 2490 nM. In addition, the Activity was 33.3% in [2], 50% in assay [3] and 39.3% in [4].

With `COc1cc(-c2cn(C)c(=O)c3ccccc23)cc(OC)c1CN1CCN(c2ccc(N3CCC(=O)NC3=O)cc2)CC1`, the values for the IC50 with MV4-11 [1] and with MV4-11 [5] were > 5000 nM and 691 nM, respectively. The Activity in [2] was determined as 12%; in assay [3], 25%; in assay [4], 8%.

Take `COc1cc(-c2cn(C)c(=O)c(C)c2C)cc(OC)c1CN1CC[C@H](N2CCN(c3ccc(N[C@H]4CCC(=O)NC4=O)cc3F)CC2)C(F)(F)C1` (racemic) [SENDEGOBRESIB]: the IC50 in the assay on MOLM-13 was 59.9 nM; in the assay on MV4-11 [1], > 5000 nM; in the assay with SU-DHL-2, 323 nM; with OCI-Ly10 it was 1240 nM; in the assay with SU-DHL-6, 3250 nM; with Kasumi 1, 14.6 nM. In addition, the half-inhibitory concentration (IC50) with MV4-11 [5] is 35.3 nM. The DC50 in assay [6] came to 3 nM. In addition, the Activity is 6.9% in assay [2], “Active; Weak Inhibitory Effect Observed” in the assay with U-937, 93.9% in [3] and 74.9% in assay [4].

As for `COc1cc(-c2cn(C)c(=O)c3ccccc23)cc(OC)c1CN1CCN(c2ccc(C(=O)NC3CCC(=O)NC3=O)nc2)CC1` (centres undefined), the IC50 in the assay with MV4-11 [1] was > 5000 nM; in the assay with MV4-11 [5], 4510 nM. Also, the values for the Activity in assay [2], in assay [3] and in assay [4] were 18.3%, 65% and 21.3%, respectively.

As to `COc1cc(-c2cn(C)c(=O)c3ccccc23)cc(OC)c1CN1CCC(CN2CCN(c3ccc(NC4CCC(=O)NC4=O)cc3)CC2)CC1` (centres undefined), the IC50 in the assay on MV4-11 [1] is > 5000 nM; in the assay on MV4-11 [5] it was 5.61 nM. Moreover, the Activity in [2] turned out to be 69.5%; in [3] it was 97.5%; in [4], 96.5%.

Consider `COc1cc(-c2cn(C)c(=O)c3ccccc23)cc(OC)c1CN1CCN(c2ccc(NC3CCC(=O)NC3=O)cc2)CC1` (centres undefined), for which the IC50 in the assay on MV4-11 [1] was > 5000 nM; in the assay with MV4-11 [5], 424 nM. The Activity in assay [2] was determined as 45.5%; in [3], 80.5%; in assay [4], 66%.

Turning to `COc1cc(-c2cn(C)c(=O)c3ccccc23)cc(OC)c1CN1CCC(CN2CCN(c3ccc(OC4CCC(=O)NC4=O)cc3)CC2)CC1` (centres undefined), the figures for the IC50 in the assay on MV4-11 [1] and in the assay on MV4-11 [5] were > 5000 nM and 46.9 nM, respectively. Besides, the Activity in [2] came out at 13%; in assay [3], 98%; in assay [4] it was 89%.

For `COc1cc(-c2cn(C)c(=O)c3ccccc23)cc(OC)c1CN1CCC(c2ccc3c4c(cccc24)C(=O)N3C2CCC(=O)NC2=O)CC1` (centres undefined), the IC50 with MV4-11 [1] was > 5000 nM; with MV4-11 [5], 2.44 nM. Besides, the figures for the Activity in assay [2], in assay [3] and in assay [4] were 79.5%, 50.5% and 80.5%, respectively.

Turning to `COc1cc(-c2cn(C)c(=O)c3ccccc23)cc(OC)c1CN1CCC(CN2CCN(c3ccc(NC4CCC(=O)NC4=O)cn3)CC2)CC1` (centres undefined), the IC50 was > 5000 nM in the assay on MV4-11 [1] and 11.9 nM with MV4-11 [5]. For the same molecule, the figures for the Activity in assay [2], in assay [3] and in assay [4] were 56%, 86.5% and 85.5%, respectively.

For the molecule `COc1cc(-c2cn(C)c(=O)c3ccccc23)cc(OC)c1CN1CCN(c2ccc(NC3CCC(=O)NC3=O)cc2F)CC1` (centres undefined), the figures for the 50% inhibitory concentration (IC50) in the assay with MV4-11 [1] and in the assay with MV4-11 [5] were > 5000 nM and 17.7 nM, respectively. The Activity worked out at 34% in [2], 86% in assay [3] and 74.7% in assay [4].

Turning to `COc1cc(-c2cn(C)c(=O)c3ccccc23)cc(OC)c1CN1CCN(c2ccc(NC3CCC(=O)NC3=O)cn2)CC1` (centres undefined), the results for the IC50 with MV4-11 [1] and in the assay with MV4-11 [5] were > 5000 nM and 1670 nM, respectively. Besides, the Activity in [2] was found to be 41.7%; in [3], 59.3%; in assay [4], 46.7%.

With `CCn1cc(-c2cccc(C(F)(F)F)c2)c2sc(C(=N)NC3CCS(=O)(=O)CC3)cc2c1=O`, the half-maximal inhibitory concentration (IC50) in the assay with MOLM-13 came out at 1220 nM; in the assay with SU-DHL-2, 1590 nM; in the assay with OCI-Ly10 it was 2710 nM; in the assay on SU-DHL-6, 1210 nM; in the assay on Kasumi 1, 453 nM; with MV4-11 [5], 385 nM. Further, in the assay with U-937, the Activity entry is “Active; Weak Inhibitory Effect Observed”.

As for `COc1cc(-c2cn(C)c(=O)c3ccccc23)cc(OC)c1CN1CCC(CN2CCN(c3ccc(C(=O)NC4CCC(=O)NC4=O)nc3)CC2)CC1` (centres undefined), the IC50 in the assay on MV4-11 [1] is > 5000 nM; in the assay on MV4-11 [5] it was 5.31 nM. In addition, the Activity came to 29.5% in assay [2], 92% in [3] and 95.5% in [4].

On to `COc1cc(-c2cn(C)c(=O)c3ccccc23)cc(OC)c1CN1CCN(c2ccc(C(=O)NC3CCC(=O)NC3=O)cc2)CC1` (centres undefined), for which the IC50 in the assay on MV4-11 [1] is > 5000 nM; in the assay on MV4-11 [5], 3150 nM. In addition, the Activity in assay [2] stood at 26.7%; in assay [3] it was 35.7%; in assay [4], 32.3%.

With `COc1cc(-c2cn(C)c(=O)c3ccccc23)cc(OC)c1CN1CCN(c2ccc(C3CCC(=O)NC3=O)cc2)CC1` (centres undefined), the concentration for half-maximal inhibition (IC50) in the assay with MV4-11 [1] is > 5000 nM; with MV4-11 [5] it was 128 nM. Moreover, the Activity worked out at 65% in assay [2], 83.7% in assay [3] and 87.3% in assay [4].

Turning to `COc1cc(-c2cn(C)c(=O)c3ccccc23)cc(OC)c1CN1CCN(c2ccc(OC3CCC(=O)NC3=O)cc2)CC1` (centres undefined), the 50% inhibitory concentration (IC50) was > 5000 nM in the assay with MV4-11 [1] and 3610 nM in the assay on MV4-11 [5]. Besides, the Activity in assay [2] was 32%; in [3], 80.5%; in assay [4], 60.5%.

A word on the IC50: it is the midpoint of a concentration-inhibition curve.
